This passage reports IC50 results from patent US11207325B2, “Triazolopyrimidine compounds and uses thereof” (Novartis AG, priority 2014, dated 2021).

For the assay, the system named is H3K27 methylation in G401 cell. The assay can be described thus: ELISA (H3K27 methylation) assay. It is filed as cell-based. To be noted: Homo sapiens, G-401; ELISA Qualified assay (H3K27 methylation); read-out: (c) IC50 (μM), ELISA Qualified. From the text:
ELISA (H3K27 Methylation) Assay
Broadly, the IC50 is the concentration at which inhibition is half-maximal. Regarding `Cc1nn(CCO)cc1-c1cnc(NCc2c(F)ccc3c2CCO3)n2cnnc12` [Example 190, 2-(4-(5-(((5-fluoro-2,3-dihydrobenzofuran-4-yl)methyl)amino)-[1,2,4]triazolo[4,3-c]pyrimidin-8-yl)-3-methyl-1H-pyrazol-1-yl)ethanol], the IC50 amounted to 0.0025 µM.

For `Fc1ccc2c(c1CNc1ncc(-c3cncnc3C(F)F)c3nncn13)CCO2` [Example 191, 8-(4-(difluoromethyl)pyrimidin-5-yl)-N-((5-fluoro-2,3-dihydrobenzofuran-4-yl)methyl)-[1,2,4]triazolo[4,3-c]pyrimidin-5-amine], the IC50 worked out at 0.0344 µM.

For `Fc1ccc2c(c1CNc1ncc(-c3ccnn3C3CC3)c3nncn13)CCO2` [Example 192, 8-(1-cyclopropyl-1H-pyrazol-5-yl)-N-((5-fluoro-2,3-dihydrobenzofuran-4-yl)methyl)-[1,2,4]triazolo[4,3-c]pyrimidin-5-amine], the IC50 amounted to 0.0104 µM.

Consider `FCc1ncccc1-c1cnc(NCc2c(F)ccc3c2CCO3)n2cnnc12` [Example 193, N-((5-fluoro-2,3-dihydrobenzofuran-4-yl)methyl)-8-(2-(fluoromethyl)pyridin-3-yl)-[1,2,4]triazolo[4,3-c]pyrimidin-5-amine], for which the IC50 is 0.0054 µM.

Turning to `Cc1cc(-c2cnc(NCc3c(F)ccc4c3CCO4)n3cnnc23)c(C)cn1` [Example 194, 8-(2,5-dimethylpyridin-4-yl)-N-((5-fluoro-2,3-dihydrobenzofuran-4-yl)methyl)-[1,2,4]triazolo[4,3-c]pyrimidin-5-amine], the IC50 is 0.0241 µM.

As to `Cc1nn(C)cc1-c1cnc(NCc2c(F)ccc3c2CCO3)n2cnnc12` [Example 195, 8-(1,3-dimethyl-1H-pyrazol-4-yl)-N-((5-fluoro-2,3-dihydrobenzofuran-4-yl)methyl)-[1,2,4]triazolo[4,3-c]pyrimidin-5-amine], the IC50 was 0.0024 µM.

With `CCOc1cc(C)c(-c2cnc(NCc3c(F)ccc4c3CCO4)n3cnnc23)cn1` [Example 196, 8-(6-ethoxy-4-methylpyridin-3-yl)-N-((5-fluoro-2,3-dihydrobenzofuran-4-yl)methyl)-[1,2,4]triazolo[4,3-c]pyrimidin-5-amine], the IC50 amounted to 0.0263 µM.

In the case of `Cc1cc(OC(F)F)ncc1-c1cnc(NCc2c(F)ccc3c2CCO3)n2cnnc12` [Example 197, 8-(6-(difluoromethoxy)-4-methylpyridin-3-yl)-N-((5-fluoro-2,3-dihydrobenzofuran-4-yl)methyl)-[1,2,4]triazolo[4,3-c]pyrimidin-5-amine], the IC50 was 0.0149 µM.

For `Cc1cnc(C(F)F)cc1-c1cnc(NCc2c(F)ccc3c2CCO3)n2cnnc12` [Example 198, 8-(2-(difluoromethyl)-5-methylpyridin-4-yl)-N-((5-fluoro-2,3-dihydrobenzofuran-4-yl)methyl)-[1,2,4]triazolo[4,3-c]pyrimidin-5-amine], the IC50 worked out at 0.0078 µM.

Regarding `Cc1nc(C(=O)N(C)C)ccc1-c1cnc(NCc2c(F)ccc3c2CCO3)n2cnnc12` [Example 199, 5-(5-(((5-fluoro-2,3-dihydrobenzofuran-4-yl)methyl)amino)-[1,2,4]triazolo[4,3-c]pyrimidin-8-yl)-N,N,6-trimethylpicolinamide], the IC50 was determined as 0.005 µM.

For `Cn1cc(-c2cnc(NCc3c(F)ccc4c3CCO4)n3cnnc23)c(C(F)F)n1` [Example 200, 8-(3-(difluoromethyl)-1-methyl-1H-pyrazol-4-yl)-N-((5-fluoro-2,3-dihydrobenzofuran-4-yl)methyl)-[1,2,4]triazolo[4,3-c]pyrimidin-5-amine], the IC50 was 0.003 µM.

As to `Cc1ccc(-c2cnc(NCc3c(F)ccc4c3CCO4)n3cnnc23)c(C(F)F)n1` [Example 201, 8-(2-(difluoromethyl)-6-methylpyridin-3-yl)-N-((5-fluoro-2,3-dihydrobenzofuran-4-yl)methyl)-[1,2,4]triazolo[4,3-c]pyrimidin-5-amine], the IC50 turned out to be 0.0036 µM.

Take `Fc1ccc2c(c1CNc1ncc(-c3ccnnc3)c3nncn13)CCO2` [Example 202, N-((5-fluoro-2,3-dihydrobenzofuran-4-yl)methyl)-8-(pyridazin-4-yl)-[1,2,4]triazolo[4,3-c]pyrimidin-5-amine]: the 50% inhibitory concentration (IC50) turned out to be 0.0206 µM.

Regarding `Cc1c(-c2cnc(NCc3c(F)ccc4c3CCO4)n3cnnc23)ccc[n+]1[O-]` [Example 204, 3-(5-(((5-fluoro-2,3-dihydrobenzofuran-4-yl)methyl)amino)-[1,2,4]triazolo[4,3-c]pyrimidin-8-yl)-2-methylpyridine 1-oxide], the IC50 worked out at 0.0103 µM.

`Fc1ccc2c(c1CNc1ncc(-c3cnccn3)c3nncn13)CCO2` [Example 205, N-((5-fluoro-2,3-dihydrobenzofuran-4-yl)methyl)-8-(pyrazin-2-yl)-[1,2,4]triazolo[4,3-c]pyrimidin-5-amine]: the IC50 was determined as 0.0167 µM.

Turning to `Fc1ccc2c(c1CNc1ncc(-c3cncnc3)c3nncn13)CCO2` [Example 206, N-((5-fluoro-2,3-dihydrobenzofuran-4-yl)methyl)-8-(pyrimidin-5-yl)-[1,2,4]triazolo[4,3-c]pyrimidin-5-amine], the IC50 came out at 0.0159 µM.

As to `CN(C)Cc1ccc(-c2cnc(NCc3cccc4occc34)n3cnnc23)cc1` [Example 208, N-(benzofuran-4-ylmethyl)-8-(4-((dimethylamino)methyl)phenyl)-[1,2,4]triazolo[4,3-c]pyrimidin-5-amine], the IC50 stood at 0.019 µM.

Consider `CN1CCN(c2ccc(-c3cnc(NCc4cccc5occc45)n4cnnc34)cc2)CC1` [Example 209, N-(benzofuran-4-ylmethyl)-8-(4-(4-methylpiperazin-1-yl)phenyl)-[1,2,4]triazolo[4,3-c]pyrimidin-5-amine], for which the half-inhibitory concentration (IC50) was found to be 0.118 µM.

Take `CN(C)Cc1ccc(-c2cnc(NCc3c(F)ccc4occc34)n3cnnc23)cc1` [Example 219, 8-(4-((dimethylamino)methyl)phenyl)-N-((5-fluorobenzofuran-4-yl)methyl)-[1,2,4]triazolo[4,3-c]pyrimidin-5-amine]: the IC50 was found to be 0.0079 µM.

For the compound `CN1CCC(S(=O)(=O)c2ccc(-c3cnc(NCc4cccc5occc45)n4cnnc34)cc2)CC1` [Example 220, N-(benzofuran-4-ylmethyl)-8-(4-((1-methylpiperidin-4-yl)sulfonyl)phenyl)-[1,2,4]triazolo[4,3-c]pyrimidin-5-amine], the IC50 came out at 0.467 µM.

With `Cc1cc(C)c(-c2cnc(NCc3c(F)ccc4c3CCO4)n3cnnc23)cn1` [Example 222, 8-(4,6-dimethylpyridin-3-yl)-N-((5-fluoro-2,3-dihydrobenzofuran-4-yl)methyl)-[1,2,4]triazolo[4,3-c]pyrimidin-5-amine], the IC50 amounted to 0.0576 µM.

As for `Cc1nc(CN(C)C)ccc1-c1cnc(NCc2c(F)ccc3c2CCO3)n2cnnc12` [Example 223], the IC50 was found to be 0.0014 µM.

On to `CCc1cc(C)c(-c2cnc(NCc3c(F)ccc4c3CCO4)n3cnnc23)cn1` [Example 224, 8-(6-ethyl-4-methylpyridin-3-yl)-N-((5-fluoro-2,3-dihydrobenzofuran-4-yl)methyl)-[1,2,4]triazolo[4,3-c]pyrimidin-5-amine], for which the IC50 came out at 0.0022 µM.

Take `Cc1nc(OC2CC2)ncc1-c1cnc(NCc2c(F)ccc3c2CCO3)n2cnnc12` [Example 225, 8-(2-cyclopropoxy-4-methylpyrimidin-5-yl)-N-((5-fluoro-2,3-dihydrobenzofuran-4-yl)methyl)-[1,2,4]triazolo[4,3-c]pyrimidin-5-amine]: the 50% inhibitory concentration (IC50) was 0.0045 µM.

As for `CCOc1ncc(-c2cnc(NCc3c(F)ccc4c3CCO4)n3cnnc23)c(C)n1` [Example 226, 8-(2-ethoxy-4-methylpyrimidin-5-yl)-N-((5-fluoro-2,3-dihydrobenzofuran-4-yl)methyl)-[1,2,4]triazolo[4,3-c]pyrimidin-5-amine], the IC50 stood at 0.0061 µM.

Take `Cn1ncc(-c2cnc(NCc3c(F)ccc4c3CCO4)n3cnnc23)c1CO` [Example 227, (4-(5-(((5-fluoro-2,3-dihydrobenzofuran-4-yl)methyl)amino)-[1,2,4]triazolo[4,3-c]pyrimidin-8-yl)-1-methyl-1H-pyrazol-5-yl)methanol]: the 50% inhibitory concentration (IC50) is 0.0091 µM.

With `Cc1cnc(Cl)cc1-c1cnc(NCc2c(F)ccc3c2CCO3)n2cnnc12` [Example 228, 8-(2-chloro-5-methylpyridin-4-yl)-N-((5-fluoro-2,3-dihydrobenzofuran-4-yl)methyl)-[1,2,4]triazolo[4,3-c]pyrimidin-5-amine], the IC50 worked out at 0.0292 µM.

Take `CCc1ccc(-c2cnc(NCc3c(F)ccc4c3CCO4)n3cnnc23)c(C)n1` [Example 229, 8-(6-ethyl-2-methylpyridin-3-yl)-N-((5-fluoro-2,3-dihydrobenzofuran-4-yl)methyl)-[1,2,4]triazolo[4,3-c]pyrimidin-5-amine]: the IC50 is 0.0027 µM.

Consider `COc1nccc(-c2cnc(NCc3c(F)ccc4c3CCO4)n3cnnc23)c1C` [Example 230, N-((5-fluoro-2,3-dihydrobenzofuran-4-yl)methyl)-8-(2-methoxy-3-methylpyridin-4-yl)-[1,2,4]triazolo[4,3-c]pyrimidin-5-amine], for which the IC50 came out at 0.0252 µM.

As to `Fc1ccc2c(c1CNc1ncc(-c3ccccn3)c3nncn13)CCO2` [Example 231, N-((5-fluoro-2,3-dihydrobenzofuran-4-yl)methyl)-8-(pyridin-2-yl)-[1,2,4]triazolo[4,3-c]pyrimidin-5-amine], the IC50 was determined as 0.0358 µM.

`Cc1cncc(-c2cnc(NCc3c(F)ccc4c3CCO4)n3cnnc23)c1` [Example 232, N-((5-fluoro-2,3-dihydrobenzofuran-4-yl)methyl)-8-(5-methylpyridin-3-yl)-[1,2,4]triazolo[4,3-c]pyrimidin-5-amine]: the IC50 was determined as 0.0133 µM.

For the compound `Cc1cn(-c2cnc(NCc3c(F)ccc4c3CCO4)n3cnnc23)cn1` [Example 233, N-((5-fluoro-2,3-dihydrobenzofuran-4-yl)methyl)-8-(4-methyl-1H-imidazol-1-yl)-[1,2,4]triazolo[4,3-c]pyrimidin-5-amine], the IC50 is 0.002 µM.

With `OCc1ccc(-c2cnc(NCc3c(F)ccc4c3CCO4)n3cnnc23)cn1` [Example 234, (5-(5-(((5-fluoro-2,3-dihydrobenzofuran-4-yl)methyl)amino)-[1,2,4]triazolo[4,3-c]pyrimidin-8-yl)pyridin-2-yl)methanol], the IC50 worked out at 0.0045 µM.
